Laboratory results as given in US20150258101A1 (Proximagen Limited, priority 2014, published 2015).
pIC50: −log10 of the molar value.

Assays:
[1] = target: T1, purified recombinantly expressed human SSAO (Homo sapiens, UniProt Q16853); assay: SSAO enzyme inhibition assay (benzylamine substrate; hydrogen peroxide/HRP-coupled or 14C aldehyde detection); type: biochemical; settings: SSAO inhibitory activity, RT
T1 construct: made in house
T1 sequence (Q16853 1-763): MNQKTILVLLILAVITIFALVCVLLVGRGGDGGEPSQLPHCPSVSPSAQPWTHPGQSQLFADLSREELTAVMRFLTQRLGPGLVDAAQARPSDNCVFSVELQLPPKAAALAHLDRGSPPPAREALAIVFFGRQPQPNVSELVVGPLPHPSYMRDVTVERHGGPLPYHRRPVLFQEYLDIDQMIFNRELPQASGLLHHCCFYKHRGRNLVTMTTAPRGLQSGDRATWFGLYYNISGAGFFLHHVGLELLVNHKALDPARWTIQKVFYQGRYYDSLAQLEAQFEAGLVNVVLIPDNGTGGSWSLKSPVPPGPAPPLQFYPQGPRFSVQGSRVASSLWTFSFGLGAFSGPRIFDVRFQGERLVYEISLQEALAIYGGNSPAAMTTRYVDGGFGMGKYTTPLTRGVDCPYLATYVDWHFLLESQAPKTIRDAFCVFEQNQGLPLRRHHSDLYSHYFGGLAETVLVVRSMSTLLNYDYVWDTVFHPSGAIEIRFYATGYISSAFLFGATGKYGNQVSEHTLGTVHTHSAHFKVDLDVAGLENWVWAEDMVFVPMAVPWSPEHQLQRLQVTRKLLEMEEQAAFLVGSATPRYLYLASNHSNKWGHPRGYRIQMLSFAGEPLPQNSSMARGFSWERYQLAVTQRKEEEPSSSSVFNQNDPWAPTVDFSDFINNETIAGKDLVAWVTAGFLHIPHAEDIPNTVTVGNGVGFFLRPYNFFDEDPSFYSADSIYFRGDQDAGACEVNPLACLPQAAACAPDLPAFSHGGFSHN
Summary of the method: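 IC50 values came from a four-parameter logistic fit of % signal decrease versus DMSO control, with no-enzyme background subtracted. Two read-outs were used with human recombinant SSAO after ~15 min compound pre-incubation at RT. In the H2O2/HRP-Amplex read-out, enzyme was 1 ug/ml and benzylamine 100 uM (pH 7.4 phosphate), with resorufin fluorescence followed 1-2 h. In the 14C-benzaldehyde read-out (PBS), enzyme was 10 ug/ml and benzylamine 40 uM, run 1 h then acid-stopped.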

[2] = target: T2, human ether a go-go related gene (hERG) K+ channel (Homo sapiens, UniProt Q12809); assay: hERG assay, IonWorks patch clamp electrophysiology; type: cell-based; settings: Chinese Hamster Lung cell line stably expressing hERG; max assay concentration 11 uM
T2 construct: a Chinese Hamster Lung cell line stably expressing the full length hERG channel; expressed in transfected cells; host or cells: Chinese Hamster Lung cell line
T2 sequence (Q12809 whole entry): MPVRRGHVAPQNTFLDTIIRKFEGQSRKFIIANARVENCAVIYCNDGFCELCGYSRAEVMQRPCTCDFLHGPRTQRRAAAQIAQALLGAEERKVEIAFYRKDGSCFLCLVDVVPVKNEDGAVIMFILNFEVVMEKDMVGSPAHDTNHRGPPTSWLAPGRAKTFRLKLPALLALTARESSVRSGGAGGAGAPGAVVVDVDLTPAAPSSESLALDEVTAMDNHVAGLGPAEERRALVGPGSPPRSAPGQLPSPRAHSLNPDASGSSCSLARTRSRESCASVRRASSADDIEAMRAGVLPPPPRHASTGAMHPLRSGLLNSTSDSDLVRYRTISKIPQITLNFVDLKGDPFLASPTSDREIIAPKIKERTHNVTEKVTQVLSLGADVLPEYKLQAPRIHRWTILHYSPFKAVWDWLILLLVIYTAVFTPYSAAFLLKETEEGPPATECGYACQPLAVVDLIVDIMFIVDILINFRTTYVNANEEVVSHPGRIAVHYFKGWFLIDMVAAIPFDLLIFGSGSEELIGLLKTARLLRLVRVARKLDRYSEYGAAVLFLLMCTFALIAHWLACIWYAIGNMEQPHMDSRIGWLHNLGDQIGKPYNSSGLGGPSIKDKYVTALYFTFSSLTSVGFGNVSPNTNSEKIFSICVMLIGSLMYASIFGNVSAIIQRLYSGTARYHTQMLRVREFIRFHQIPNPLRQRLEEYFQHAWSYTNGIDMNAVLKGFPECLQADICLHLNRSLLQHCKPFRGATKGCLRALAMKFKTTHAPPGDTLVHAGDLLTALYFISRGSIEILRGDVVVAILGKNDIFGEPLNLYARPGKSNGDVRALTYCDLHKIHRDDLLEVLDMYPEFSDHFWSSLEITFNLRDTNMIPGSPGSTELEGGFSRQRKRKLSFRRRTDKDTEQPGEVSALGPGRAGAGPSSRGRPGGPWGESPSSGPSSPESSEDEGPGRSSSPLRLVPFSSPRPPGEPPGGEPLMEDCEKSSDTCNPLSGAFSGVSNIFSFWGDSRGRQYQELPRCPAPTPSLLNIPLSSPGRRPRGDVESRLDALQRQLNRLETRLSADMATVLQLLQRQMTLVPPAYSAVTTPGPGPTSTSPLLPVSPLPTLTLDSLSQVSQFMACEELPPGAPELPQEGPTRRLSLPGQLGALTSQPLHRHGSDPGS
Procedure: Compounds of the invention were tested for inhibition of the human ether a go-go related gene (hERG) K^+ channel using IonWorks patch clamp electrophysiology. 8 Point concentration-response curves were generated on two occasions using 3-fold serial dilutions from the maximum assay concentration (11 uM). Electrophysiological recordings were made from a Chinese Hamster Lung cell line stably expressing the full length hERG channel. Single cell ion currents were measured in the perforated patch clamp configuration (100 ug/mL amphoterocin) at room temperature using an IonWorks Quattro instrument. The internal solution contained 140 mM KCl, 1 mM MgCl2, 1 mM EGTA and 20 mM HEPES and was buffered to pH 7.3. The external solution contained 138 mM NaCl, 2.7 mM KCl, 0.9 mM CaCl2, 0.5 mM MgCl2, 8 mM Na2HPO4 and 1.5 mM KH2PO4, and was buffered to pH 7.3. […] This sequence was repeated 5 times at a frequency of 0.25 Hz. Currents were measured from the tail step at the 5th pulse, and referenced to the holding current. Compounds were incubated for 6-7 min prior to a second measurement of the hERG signal using an identical pulse train. […] A control compound (quinidine) was used (see Table 20 below).

Row | SMILES | pIC50 [1] | pIC50 [2]
1 | Clc1ccc(-n2c(-c3cnc(N4CCOCC4)nc3)nc3ccncc32)cc1 [Example 51, 4-{5-[3-(4-Chlorophenyl)-3H-imidazo[4,5-c]pyridin-2-yl]pyrimidin-2-yl}morpholine] | > 7.30 | 5.00 to 6.00
2 | Fc1ccc(-n2c(-c3cnc(N4CCOCC4)nc3)nc3ccncc32)cc1 [Example 52, 4-{5-[3-(4-Fluorophenyl)-3H-imidazo[4,5-c]pyridin-2-yl]pyrimidin-2-yl}morpholine] | > 7.30 | < 5.00
3 | Cc1ccc(-n2c(-c3cnc(N4CCOCC4)nc3)nc3ccncc32)c(F)c1 [Example 53, 4-{5-[3-(2-Fluoro-4-methylphenyl)-3H-imidazo[4,5-c]pyridin-2-yl]pyrimidin-2-yl}morpholine] | 5.92 to 6.70 | < 5.00
4 | Fc1ccc(-n2c(-c3ccc(N4CCOCC4)nc3)nc3ccncc32)cc1 [Example 54, 4-{5-[3-(4-Fluorophenyl)-3H-imidazo[4,5-c]pyridin-2-yl]pyridin-2-yl}morpholine] | 5.92 to 6.70 | < 5.00
5 | Cc1ccc(-n2c(-c3cnc(N4CCOCC4)nc3)nc3ccncc32)cc1 [Example 57, 4-{5-[3-(4-Methylphenyl)-3H-imidazo[4,5-c]pyridin-2-yl]pyrimidin-2-yl}morpholine] | 6.70 to 7.30 | < 5.00
6 | Cc1ccc(-n2c(-c3ccc(N4CCOCC4)nc3)nc3ccncc32)cc1 [Example 63, 4-{5-[3-(4-Methylphenyl)-3H-imidazo[4,5-c]pyridin-2-yl]pyridin-2-yl}morpholine] | 5.92 to 6.70 | < 5.00
7 | Cc1ccc(-n2c(-c3ccc(N4CCOCC4)nc3)nc3ccncc32)cn1 [Example 64, 4-{5-[3-(6-Methylpyridin-3-yl)-3H-imidazo[4,5-c]pyridin-2-yl]pyridin-2-yl}morpholine] | 5.92 to 6.70 | < 5.00
8 | Cc1ccc(-n2c(-c3ccc(N4CCOCC4)nc3)nc3ccncc32)c(F)c1 [Example 67, 4-{5-[3-(2-Fluoro-4-methylphenyl)-3H-imidazo[4,5-c]pyridin-2-yl]pyridin-2-yl}morpholine] | > 7.30 | 5.00 to 6.00
9 | Fc1ccc(-n2c(-c3cnc(N4CCCC4)nc3)nc3ccncc32)cc1 [Example 69, 5-[3-(4-Fluorophenyl)-3H-imidazo[4,5-c]pyridin-2-yl]-2-(pyrrolidin-1-yl)pyrimidine] | > 7.30 | < 5.00
10 | CC1CN(c2ccc(-c3nc4ccncc4n3-c3ccc(F)cc3)cn2)CCO1 (centres unmarked) [Example 70, 4-{5-[3-(4-Fluorophenyl)-3H-imidazo[4,5-c]pyridin-2-yl]pyridin-2-yl}-2-methylmorpholine] | > 7.30 | < 5.00
11 | CN(C)c1ccc(-c2nc3ccncc3n2-c2ccc(F)cc2)cn1 [Example 71, 5-[3-(4-Fluorophenyl)-3H-imidazo[4,5-c]pyridin-2-yl]-N,N-dimethylpyridin-2-amine] | 5.92 to 6.70 | < 5.00
12 | Clc1ccc(-n2c(-c3cnc(N4CCOCC4)nc3)nc3ccncc32)nc1 [Example 75, 4-{5-[3-(5-Chloropyridin-2-yl)-3H-imidazo[4,5-c]pyridin-2-yl]pyrimidin-2-yl}morpholine; tris(trifluoroacetic acid)] | > 7.30 | < 5.00
13 | Fc1cc(Cl)ccc1-n1c(-c2cnc(N3CCOCC3)nc2)nc2ccncc21 [Example 77, 4-{5-[3-(4-Chloro-2-fluorophenyl)-3H-imidazo[4,5-c]pyridin-2-yl]pyrimidin-2-yl}morpholine] | 5.92 to 6.70 | < 5.00
14 | Fc1ccc(-n2c(-c3cnc(N4CCOCC4)nc3)nc3ccncc32)c(F)c1 [Example 78, 4-{5-[3-(2,4-Difluorophenyl)-3H-imidazo[4,5-c]pyridin-2-yl]pyrimidin-2-yl}morpholine] | > 7.30 | < 5.00
15 | Fc1cc(Cl)ccc1-n1c(-c2ccc(N3CCOCC3)nc2)nc2ccncc21 [Example 80, 4-{5-[3-(4-Chloro-2-fluorophenyl)-3H-imidazo[4,5-c]pyridin-2-yl]pyridin-2-yl}morpholine] | 6.70 to 7.30 | < 5.00
16 | Clc1ccc(-n2c(-c3ccc(N4CCOCC4)nc3)nc3ccncc32)nc1 [Example 81, 4-{5-[3-(5-Chloropyridin-2-yl)-3H-imidazo[4,5-c]pyridin-2-yl]pyridin-2-yl}morpholine] | > 7.30 | < 5.00
17 | Cc1ccc(-n2c(-c3ccc(N4CCOCC4)nc3)nc3ccncc32)nc1 [Example 82, 4-{5-[3-(5-Methylpyridin-2-yl)-3H-imidazo[4,5-c]pyridin-2-yl]pyridin-2-yl}morpholine] | > 7.30 | < 5.00
18 | CC(=O)NC1CCN(c2ccc(-c3nc4ccncc4n3-c3ccc(Cl)cc3)cn2)CC1 [Example 85, N-(1-{5-[3-(4-Chlorophenyl)-3H-imidazo[4,5-c]pyridin-2-yl]pyridin-2-yl}piperidin-4-yl)acetamide] | > 7.30 | < 5.00
19 | CC(=O)N1CCN(c2ccc(-c3nc4ccncc4n3-c3ccc(F)cc3)cn2)CC1 [Example 86, 1-(4-{5-[3-(4-Fluorophenyl)-3H-imidazo[4,5-c]pyridin-2-yl]pyridin-2-yl}piperazin-1-yl)ethan-1-one] | > 7.30 | < 5.00
20 | CS(=O)(=O)NC1CCN(c2ccc(-c3nc4ccncc4n3-c3ccc(Cl)cc3)cn2)CC1 [Example 88, N-(1-{5-[3-(4-Chlorophenyl)-3H-imidazo[4,5-c]pyridin-2-yl]pyridin-2-yl}piperidin-4-yl)methanesulfonamide] | > 7.30 | 5.00 to 6.00
21 | CS(=O)(=O)N1CCN(c2ccc(-c3nc4ccncc4n3-c3ccc(F)cc3)cn2)CC1 [Example 89, 1-{5-[3-(4-Fluorophenyl)-3H-imidazo[4,5-c]pyridin-2-yl]pyridin-2-yl}-4-methanesulfonylpiperazine] | > 7.30 | < 5.00
22 | NC(=O)NC1CCN(c2ccc(-c3nc4ccncc4n3-c3ccc(Cl)cc3)cn2)CC1 [Example 91, (1-{5-[3-(4-Chlorophenyl)-3H-imidazo[4,5-c]pyridin-2-yl]pyridin-2-yl}piperidin-4-yl)urea; bis(trifluoroacetic acid)] | 5.92 to 6.70 | < 5.00
23 | NC(=O)N1CCN(c2ccc(-c3nc4ccncc4n3-c3ccc(F)cc3)cn2)CC1 [Example 92, 4-{5-[3-(4-Fluorophenyl)-3H-imidazo[4,5-c]pyridin-2-yl]pyridin-2-yl}piperazine-1-carboxamide] | > 7.30 | < 5.00
24 | c1ccc(-n2c(-c3cnc(N4CCOCC4)nc3)nc3ccncc32)cc1 [Example 95, 4-(5-{3-Phenyl-3H-imidazo[4,5-c]pyridin-2-yl}pyrimidin-2-yl)morpholine] | 6.70 to 7.30 | < 5.00
25 | Fc1ccc(-n2c(-c3cnc(N4CCOCC4)c(F)c3)nc3ccncc32)cc1 [Example 98, 4-{3-Fluoro-5-[3-(4-fluorophenyl)-3H-imidazo[4,5-c]pyridin-2-yl]pyridin-2-yl]morpholine] | 6.70 to 7.30 | < 5.00
26 | Nc1ccc(-c2nc3ccncc3n2-c2ccc(Cl)cc2)cn1 [Example 110, 5-[3-(4-Chlorophenyl)-3H-imidazo[4,5-c]pyridin-2-yl]pyridin-2-amine] | 5.92 to 6.70 | < 5.00
27 | COCCN(C)c1ncc(-c2nc3ccncc3n2-c2ccc(C)cc2)cn1 [Example 117, N-(2-Methoxyethyl)-N-methyl-5-[3-(4-methylphenyl)-3H-imidazo[4,5-c]pyridin-2-yl]pyrimidin-2-amine] | 5.92 to 6.70 | < 5.00
28 | Clc1ccc(-n2c(-c3ccncc3)cc3ccncc32)cc1 [Example 120, 4-[1-(4-Chlorophenyl)-1H-pyrrolo[2,3-c]pyridin-2-yl]pyridine] | 5.92 to 6.70 | 5.00 to 6.00
